Reference: patent publication US9458132B2, “Therapeutic compounds and compositions and their use as PKM2 modulators” (AGIOS PHARMACEUTICALS, INC., priority 2012, dated 2016)

Columns and labels:
[1] = target: PKR R510Q (Homo sapiens, UniProt P30613, R510Q); assay: PKR mutant assay, PKR R510Q AC50; type: biochemical; conditions: mutant PKR R510Q enzyme
Protocol: (§1) • PKR or PKR mutant enzyme solution was diluted in assay buffer. • 2 μL of test compound was added into wells first, and then 180 μL reaction mix was added. • Reactions mixture with test compound was assembled except for ADP, and plates were stored for 60 minutes at room temperature. • 20 uL ADP was added to start reaction at room temperature and reaction progress was measured as changes in absorbance at 340 nm wavelength at room temperature.
Test Compound Preparation: • Test compound stock was made at 100x concentration in 100% DMSO (10 mM) • 1 to 3 dilutions were made for 11 points (i.e. 50 μl of first concentration added to 100 μl 100% DMSO to yield 3.33 mM, 50 μl of this added to 100 μl DMSO to yield 1.11 mM, and so forth) • 1 to 100 dilution into assay (2 μl in 200 μl) yielded starting concentration of 100 μM, decreasing 3 fold for 11 points • Assay Buffer: 100 mM KCl, 50 mM Tris 7.5, 5 mM MgCl2, 1 mM DTT, 0.03% BSA • Reaction Mixture: PKR mutant enzyme: 80-400 ng/well; ADP: 0.22-1.65 mM; PEP: 0.1-0.5 mM; NADH:180 uM; LDH: 0.5 units (Sigma#59023); DTT: 1 mM; BSA: 0.03%. […]

[2] = target: PKR R532W (Homo sapiens, UniProt P30613, R532W); assay: PKR mutant assay, PKR R532W AC50; type: biochemical; conditions: mutant PKR R532W enzyme
Sequence of PKR R532W (P30613 whole entry R532W): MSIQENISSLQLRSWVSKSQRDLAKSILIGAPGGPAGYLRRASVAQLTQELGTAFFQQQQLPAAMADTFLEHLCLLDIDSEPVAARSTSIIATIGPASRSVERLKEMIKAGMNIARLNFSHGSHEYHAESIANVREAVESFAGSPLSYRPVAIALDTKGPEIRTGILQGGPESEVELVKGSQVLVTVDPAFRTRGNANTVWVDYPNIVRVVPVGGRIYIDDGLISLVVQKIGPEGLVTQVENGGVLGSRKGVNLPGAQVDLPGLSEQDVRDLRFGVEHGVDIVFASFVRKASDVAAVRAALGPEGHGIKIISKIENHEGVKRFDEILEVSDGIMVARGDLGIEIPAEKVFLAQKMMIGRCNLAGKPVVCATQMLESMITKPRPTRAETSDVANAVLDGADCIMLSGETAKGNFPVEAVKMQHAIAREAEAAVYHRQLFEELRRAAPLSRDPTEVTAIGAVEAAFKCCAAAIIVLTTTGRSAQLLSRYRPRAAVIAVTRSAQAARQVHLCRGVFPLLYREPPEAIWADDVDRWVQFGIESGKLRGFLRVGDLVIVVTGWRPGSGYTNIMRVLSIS
Protocol: as §1
(§2) Test Compound Preparation: • Test compound stock was made at 100x concentration in 100% DMSO (10 mM) • 1 to 3 dilutions were made for 11 points (i.e. 50 μl of first concentration added to 100 μl 100% DMSO to yield 3.33 mM, 50 μl of this added to 100 μl DMSO to yield 1.11 mM, and so forth) • 1 to 100 dilution into assay (2 μl in 200 μl) yielded starting concentration of 100 μM, decreasing 3 fold for 11 points • Assay Buffer: 100 mM KCl, 50 mM Tris 7.5, 5 mM MgCl2, 1 mM DTT, 0.03% BSA • Reaction Mixture: PKR mutant enzyme: 80-400 ng/well; ADP: 0.22-1.65 mM; PEP: 0.1-0.5 mM; NADH:180 uM; LDH: 0.5 units (Sigma#59023); DTT: 1 mM; BSA: 0.03%.
(§3) A compound described herein was diluted with DMSO and tested at 1 μM concentration. The enzyme was diluted in 1× Buffer: (100 mM KCl, 50 mM Tris 7.5, 5 mM MgCl2, 1 mM DTT, 0.03% BSA). 2 μL of compound solution was first added into wells, and then 180 μL of enzyme solution was added. Assays were assembled except for ADP, and plates were stored for 60 minutes at RT. 20 μL ADP was added to start the assay and assay output was evaluated using OD340 at SpectraMax. The assay was run at room temperature. • Final concentration: PKR R532W (100 ng/well), Tris pH 7.5 (50 mM), KCl (100 mM), MgCl2 (5 mM), ADP (0.36 mM), PEP (0.1 mM), NADH (180 μM), LDH (0.5 units, Sigma 59023), DTT (1 mM) and BSA (0.03%).

[3] = target: T1, PKR WT (Homo sapiens, UniProt P30613); assay: PKR WT enzymatic assay AC50; type: biochemical; conditions: wild type PKR
T1 sequence (P30613 whole entry): as the sequence (P30613 whole entry R532W) above, with W532R counted along it
Protocol: as §1, §2
as §3, with “wt” for “R532W”, “(0.48” for “(0.36”, “(0.15” for “(0.1”

[4] = target: T1, PKR WT; assay: PKR WT cell based assay AC50; conditions: wild type PKR

Sequence of PKR R510Q (P30613 whole entry R510Q): as the sequence (P30613 whole entry R532W) above, with R510Q, W532R counted along it

Compound	AC50 [1] [nM]	AC50 [2] [nM]	AC50 [3] [nM]	AC50 [4] [nM]
O=C(c1ccc(NS(=O)(=O)c2cccc3cccnc23)cc1)N1CC(O)(c2cccc(F)c2)C1 [Compound 4, N-(4-(3-(3-fluorophenyl)-3-hydroxyazetidine-1-carbonyl)phenyl)quinoline-8-sulfonamide]	1010 to 10000	101 to 1000	101 to 1000	< 100
O=C(c1ccc(NS(=O)(=O)c2cccc3cccnc23)cc1)N1CC(O)(c2cccc(C(F)(F)F)c2)C1 [Compound 9, N-(4-(3-hydroxy-3-(3-(trifluoromethyl)phenyl)azetidine-1-carbonyl)phenyl)quinoline-8-sulfonamide]	< 100	< 100	< 100	< 100
O=C(c1ccc(NS(=O)(=O)c2cccc3cccnc23)cc1)N1CC(O)(c2cccc(OC(F)(F)F)c2)C1 [Compound 10, N-(4-(3-hydroxy-3-(3-(trifluoromethoxy)phenyl)azetidine-1-carbonyl)phenyl)quinoline-8-sulfonamide]	101 to 1000	< 100	< 100	101 to 1000
O=C(c1ccc(NS(=O)(=O)c2cccc3cccnc23)cc1)N1CC(O)(c2cccc(Cl)c2)C1 [Compound 11, N-(4-(3-(3-chlorophenyl)-3-hydroxyazetidine-1-carbonyl)phenyl)quinoline-8-sulfonamide]	101 to 1000	< 100	< 100	101 to 1000
Cc1cc(F)ccc1C1(O)CN(C(=O)c2ccc(NS(=O)(=O)c3cccc4cccnc34)cc2)C1 [Compound 12, N-(4-(3-(4-fluoro-2-methylphenyl)-3-hydroxyazetidine-1-carbonyl)phenyl)quinoline-8-sulfonamide]	101 to 1000	< 100	< 100	101 to 1000
CCCCC1(O)CN(C(=O)c2ccc(NS(=O)(=O)c3cccc4cccnc34)cc2)C1 [Compound 16, N-(4-(3-butyl-3-hydroxyazetidine-1-carbonyl)phenyl)quinoline-8-sulfonamide]	101 to 1000	101 to 1000	< 100	101 to 1000
O=C(c1ccc(NS(=O)(=O)c2cccc3cccnc23)cc1)N1CC(O)(c2cccnc2C(F)(F)F)C1 [Compound 17, N-(4-(3-hydroxy-3-(2-(trifluoromethyl)pyridin-3-yl)azetidine-1-carbonyl)phenyl)quinoline-8-sulfonamide]	101 to 1000		< 100	101 to 1000
Cc1ncccc1C1(O)CN(C(=O)c2ccc(NS(=O)(=O)c3cccc4cccnc34)cc2)C1 [Compound 19, N-(4-(3-hydroxy-3-(2-methylpyridin-3-yl)azetidine-1-carbonyl)phenyl)quinoline-8-sulfonamide]	101 to 1000	< 100	101 to 1000	101 to 1000
O=C(c1ccc(NS(=O)(=O)c2cccc3c2OCCO3)cc1)N1CC(O)(Cc2ccccc2)C1 [Compound 53, N-(4-(3-benzyl-3-hydroxyazetidine-1-carbonyl)phenyl)-2,3-dihydrobenzo[b][1,4]dioxine-5-sulfonamide]	< 100	< 100	< 100	< 100
COc1cccc(C2(O)CN(C(=O)c3ccc(NS(=O)(=O)c4cccc5cccnc45)cc3)C2)c1 [Compound 61]	101 to 1000	< 100	< 100	< 100
Cn1c(=O)oc2cc(S(=O)(=O)Nc3ccc(C(=O)N4CC(O)(Cc5ccccc5)C4)cc3)ccc21 [Compound 70]	> 10000	> 10000	> 10000	

Results, then the molecule that gave them:

AC50 [1] [nM]	AC50 [2] [nM]	AC50 [3] [nM]	AC50 [4] [nM]	Compound
101 to 1000	< 100	< 100	101 to 1000	COc1ccccc1C1(O)CN(C(=O)c2ccc(NS(=O)(=O)c3cccc4cccnc34)cc2)C1 [Compound 2, N-(4-(3-hydroxy-3-(2-methoxyphenyl)azetidine-1-carbonyl)phenyl)quinoline-8-sulfonamide]
101 to 1000	< 100	< 100	101 to 1000	O=C(c1ccc(NS(=O)(=O)c2cccc3cccnc23)cc1)N1CC(O)(c2ccccc2Cl)C1 [Compound 5, N-(4-(3-(2-chlorophenyl)-3-hydroxyazetidine-1-carbonyl)phenyl)quinoline-8-sulfonamide]
101 to 1000	< 100	101 to 1000	101 to 1000	O=C(c1ccc(NS(=O)(=O)c2cccc3cccnc23)cc1)N1CC(O)(c2ccccc2OC(F)(F)F)C1 [Compound 7, N-(4-(3-hydroxy-3-(2-(trifluoromethoxy)phenyl)azetidine-1-carbonyl)phenyl)quinoline-8-sulfonamide]
101 to 1000		< 100	< 100	CCc1ccccc1C1(O)CN(C(=O)c2ccc(NS(=O)(=O)c3cccc4cccnc34)cc2)C1 [Compound 13, N-(4-(3-(2-ethylphenyl)-3-hydroxyazetidine-1-carbonyl)phenyl)quinoline-8-sulfonamide]
101 to 1000	< 100	< 100	101 to 1000	Cc1ccccc1C1(O)CN(C(=O)c2ccc(NS(=O)(=O)c3cccc4cccnc34)cc2)C1 [Compound 15, N-(4-(3-hydroxy-3-(o-tolyl)azetidine-1-carbonyl)phenyl)quinoline-8-sulfonamide]
101 to 1000	101 to 1000	101 to 1000	101 to 1000	COc1ncccc1C1(O)CN(C(=O)c2ccc(NS(=O)(=O)c3cccc4cccnc34)cc2)C1 [Compound 20, N-(4-(3-hydroxy-3-(2-methoxypyridin-3-yl)azetidine-1-carbonyl)phenyl)quinoline-8-sulfonamide]
